Experimental data from US5977133A, “Pyridone antibiotic with improved safety profile” (priority 1998, dated 1999).
In brackets after ≈: the same amount, converted by molar mass.

Columns and labels:
N. gonorrhoeae = experiment: In vitro MIC, agar dilution; assay type: cell-based; conditions: Neisseria gonorrhoeae
S. pneumoniae (CiproR) = experiment: In vitro MIC, agar dilution; assay type: cell-based; conditions: Streptococcus pneumoniae, read-out: MIC Range
M. catarrhalis = experiment: In vitro MIC, agar dilution; assay type: cell-based; conditions: Moraxella catarrhalis
E. faecium (VanS) = experiment: In vitro MIC, agar dilution; assay type: cell-based; conditions: Enterococcus faecium
E. faecalis (VanS) = experiment: In vitro MIC, agar dilution; assay type: cell-based; conditions: Enterococcus faecalis
S. pneumoniae (PenS) = experiment: In vitro MIC, agar dilution; assay type: cell-based; conditions: Streptococcus pneumoniae
C. difficile = experiment: In vitro MIC, agar dilution; assay type: cell-based; conditions: Clostridioides difficile
S. epidermidis (CiproS) = experiment: In vitro MIC, agar dilution; assay type: cell-based; conditions: Staphylococcus epidermidis
E. faecium (CiproS) = experiment: In vitro MIC, agar dilution; assay type: cell-based; conditions: Enterococcus faecium
[1] = tested on: Streptococcus pneumoniae 6303; experiment: In vivo efficacy, mouse infection (ED50); conditions: Streptococcus pneumoniae, 6303, in Mus musculus, 168 h
S. pyogenes = experiment: In vitro MIC, agar dilution; assay type: cell-based; conditions: Streptococcus pyogenes
H. pylori = experiment: In vitro MIC, agar dilution; assay type: cell-based; conditions: Helicobacter pylori
S. aureus (CiproR) = experiment: In vitro MIC, agar dilution; assay type: cell-based; conditions: Staphylococcus aureus
P. mirabilis = experiment: In vitro MIC, agar dilution; assay type: cell-based; conditions: Proteus mirabilis
Enterococcus spp. (VanR) = experiment: In vitro MIC, agar dilution; assay type: cell-based; conditions: Enterococcus
Shigella spp. = experiment: microbe, parasite or virus in culture; assay type: cell-based; conditions: read-out: MIC Range
B. fragilis = experiment: In vitro MIC, agar dilution; assay type: cell-based; conditions: Bacteroides fragilis
S. aureus (CiproS) = experiment: In vitro MIC, agar dilution; assay type: cell-based; conditions: Staphylococcus aureus
Enterobacter spp. = experiment: In vitro MIC, agar dilution; assay type: cell-based; conditions: Enterobacter
M. pneumoniae = experiment: In vitro MIC, agar dilution; assay type: cell-based; conditions: Mycoplasmoides pneumoniae, read-out: MIC Range
[2] = tested on: staphylococcus aureus NTCC 10649; experiment: In vivo efficacy, mouse infection (ED50); conditions: Staphylococcus aureus, NTCC10649, in Mus musculus, 168 h
E. coli = experiment: In vitro MIC, agar dilution; assay type: cell-based; conditions: Escherichia coli, 25 isolates
Experimental: (§1) Each plate was inoculated with 1:100 (or 1:10 for slow-growing strains, primarily Micrococcus and Streptococcus) dilutions of up to 32 different microorganisms, using a Steers replicator block calibrated to deliver approximately 10^4 colony forming units (CFU's). The inoculated plates were incubated at from about 35° C. to about 37 ° C. for approximately 20-24 hours. In addition, a control plate using BHI agar containing no test compound was prepared and incubated at the beginning and at the end of each test. The quinolone antibacterial ciprofloxacin was used as a control ("Cntl").
(§2) The numbers below the microorganism species indicate the nunbers of isolates tested. […] The MIC is defined as the lowest concentration of test compound yielding no growth (a slight haze or sparsely isolated colonies at the inoculum spot) as compared to the growth control containing no test compound.

Salmonella spp. = experiment: In vitro MIC, agar dilution; assay type: cell-based; conditions: 23 isolates
Experimental: as §1, §2

Providencia spp. = experiment: In vitro MIC, agar dilution; assay type: cell-based
S. pneumoniae (PenR) = experiment: In vitro MIC, agar dilution; assay type: cell-based; conditions: Streptococcus pneumoniae
[3] = tested on: ciprofloxacin resistant staphylococcal strains; experiment: In vitro MIC, agar dilution (summary in text); assay type: cell-based
M. avium = experiment: In vitro MIC, agar dilution; assay type: cell-based; conditions: Mycobacterium avium
Legionella spp. = experiment: microbe, parasite or virus in culture; assay type: cell-based; conditions: Legionella
P. aeruginosa (CiproS) = experiment: In vitro MIC, agar dilution; assay type: cell-based; conditions: Pseudomonas aeruginosa
P. aeruginosa (CiproR) = experiment: In vitro MIC, agar dilution; assay type: cell-based
Klebsiella spp. = experiment: In vitro MIC, agar dilution; assay type: cell-based; conditions: Klebsiella
H. influenzae = experiment: In vitro MIC, agar dilution; assay type: cell-based; conditions: Haemophilus influenzae
C. freundii = experiment: In vitro MIC, agar dilution; assay type: cell-based; conditions: Citrobacter freundii
Escherichia coli JUHL = experiment: In vivo efficacy, mouse infection (ED50); conditions: Escherichia coli, in Mus musculus, 168 h
S. epidermidis (CiproR) = experiment: In vitro MIC, agar dilution; assay type: cell-based; conditions: Staphylococcus epidermidis

O=C(O)c1cn(C2CC2)c2cc(N3CCNCC3)c(F)cc2c1=O [Ciprofloxacin, ciprofloxacin]
MIC50 (N. gonorrhoeae): 0.008 mg/L (≈ 0.0241 µM)
MIC90 (N. gonorrhoeae): 0.03 mg/L (≈ 0.0905 µM)
MIC (N. gonorrhoeae; read-out: MIC Range): 0.004 to 0.12 mg/L (≈ 0.0121 to 0.362 µM)
MIC (S. pneumoniae (CiproR)): 4 to 8 mg/L (≈ 12.1 to 24.1 µM)
MIC50 (M. catarrhalis): 0.03 mg/L (≈ 0.0905 µM)
MIC90 (M. catarrhalis): 0.06 mg/L (≈ 0.181 µM)
MIC (M. catarrhalis; read-out: MIC Range): 0.008 to 0.06 mg/L (≈ 0.0241 to 0.181 µM)
MIC50 (E. faecium (VanS)): 4 mg/L (≈ 12.1 µM)
MIC90 (E. faecium (VanS)): 4 mg/L (≈ 12.1 µM)
MIC (E. faecium (VanS); read-out: MIC Range): 1 to 4 mg/L (≈ 3.02 to 12.1 µM)
MIC50 (E. faecalis (VanS)): 2 mg/L (≈ 6.04 µM)
MIC90 (E. faecalis (VanS)): 4 mg/L (≈ 12.1 µM)
MIC (E. faecalis (VanS); read-out: MIC Range): 1 to 4 mg/L (≈ 3.02 to 12.1 µM)
MIC50 (S. pneumoniae (PenS)): 2 mg/L (≈ 6.04 µM)
MIC90 (S. pneumoniae (PenS)): 4 mg/L (≈ 12.1 µM)
MIC (S. pneumoniae (PenS); read-out: MIC Range): 1 to 8 mg/L (≈ 3.02 to 24.1 µM)
MIC50 (C. difficile): 16 mg/L (≈ 48.3 µM)
MIC90 (C. difficile): 16 mg/L (≈ 48.3 µM)
MIC (C. difficile; read-out: MIC Range): 16 mg/L (≈ 48.3 µM)
MIC50 (S. epidermidis (CiproS)): 0.25 mg/L (≈ 0.754 µM)
MIC90 (S. epidermidis (CiproS)): 0.25 mg/L (≈ 0.754 µM)
MIC (S. epidermidis (CiproS); read-out: MIC Range): 0.06 to 0.5 mg/L (≈ 0.181 to 1.51 µM)
MIC50 (E. faecium (CiproS)): 2 mg/L (≈ 6.04 µM)
MIC90 (E. faecium (CiproS)): 4 mg/L (≈ 12.1 µM)
MIC (E. faecium (CiproS); read-out: MIC Range): 2 to 4 mg/L (≈ 6.04 to 12.1 µM)
ED50 ([1]; po): > 100 mg/kg
ED50 ([1]; sc): > 50 mg/kg
MIC50 (S. pyogenes): 0.5 mg/L (≈ 1.51 µM)
MIC90 (S. pyogenes): 1 mg/L (≈ 3.02 µM)
MIC (S. pyogenes; read-out: MIC Range): 0.25 to 4 mg/L (≈ 0.754 to 12.1 µM)
MIC50 (H. pylori): 0.5 mg/L (≈ 1.51 µM)
MIC90 (H. pylori): 0.5 mg/L (≈ 1.51 µM)
MIC (H. pylori; read-out: MIC Range): 0.12 to 0.5 mg/L (≈ 0.362 to 1.51 µM)
MIC50 (S. aureus (CiproR)): 32 mg/L (≈ 96.6 µM)
MIC90 (S. aureus (CiproR)): 128 mg/L (≈ 386 µM)
MIC50 (P. mirabilis): 0.015 mg/L (≈ 0.0453 µM)
MIC90 (P. mirabilis): 0.03 mg/L (≈ 0.0905 µM)
MIC (P. mirabilis; read-out: MIC Range): 0.015 to 0.06 mg/L (≈ 0.0453 to 0.181 µM)
MIC50 (Enterococcus spp. (VanR)): 4 mg/L (≈ 12.1 µM)
MIC90 (Enterococcus spp. (VanR)): 4 mg/L (≈ 12.1 µM)
MIC (Shigella spp.): 0.008 to 0.015 mg/L (≈ 0.0241 to 0.0453 µM)
MIC50 (B. fragilis): 8 mg/L (≈ 24.1 µM)
MIC90 (B. fragilis): 16 mg/L (≈ 48.3 µM)
MIC (B. fragilis; read-out: MIC Range): 4 to 32 mg/L (≈ 12.1 to 96.6 µM)
MIC50 (S. aureus (CiproS)): 0.25 mg/L (≈ 0.754 µM)
MIC90 (S. aureus (CiproS)): 0.5 mg/L (≈ 1.51 µM)
MIC (S. aureus (CiproS); read-out: MIC Range): 0.06 to 0.5 mg/L (≈ 0.181 to 1.51 µM)
MIC50 (Enterobacter spp.): 0.015 mg/L (≈ 0.0453 µM)
MIC90 (Enterobacter spp.): 0.03 mg/L (≈ 0.0905 µM)
MIC (Enterobacter spp.; read-out: MIC Range): 0.008 to 0.12 mg/L (≈ 0.0241 to 0.362 µM)
MIC (M. pneumoniae): 1 to 2 mg/L (≈ 3.02 to 6.04 µM)
ED50 ([2]; po): 18.3 mg/kg
ED50 ([2]; sc): 3.1 mg/kg
MIC (E. coli): 0.008 to 0.03 mg/L (≈ 0.0241 to 0.0905 µM)
MIC50 (E. coli; read-out: MIC50): 0.03 mg/L (≈ 0.0905 µM)
MIC90 (E. coli; read-out: MIC90): 0.03 mg/L (≈ 0.0905 µM)
MIC (Salmonella spp.): 0.004 to 0.5 mg/L (≈ 0.0121 to 1.51 µM)
MIC50 (Salmonella spp.; read-out: MIC50): 0.03 mg/L (≈ 0.0905 µM)
MIC90 (Salmonella spp.; read-out: MIC90): 0.03 mg/L (≈ 0.0905 µM)
MIC50 (Providencia spp.; Providencia): 0.03 mg/L (≈ 0.0905 µM)
MIC90 (Providencia spp.; Providencia): 0.25 mg/L (≈ 0.754 µM)
MIC (Providencia spp.; Providencia spp., 28 isolates, read-out: MIC Range): 0.015 to 0.25 mg/L (≈ 0.0453 to 0.754 µM)
MIC50 (S. pneumoniae (PenR)): 2 mg/L (≈ 6.04 µM)
MIC90 (S. pneumoniae (PenR)): 2 mg/L (≈ 6.04 µM)
MIC (S. pneumoniae (PenR); read-out: MIC Range): 1 to 2 mg/L (≈ 3.02 to 6.04 µM)
MIC90 [3]: > 128 mg/L
MIC50 (M. avium): 16 mg/L (≈ 48.3 µM)
MIC90 (M. avium): 32 mg/L (≈ 96.6 µM)
MIC50 (Legionella spp.): 0.25 mg/L (≈ 0.754 µM)
MIC90 (Legionella spp.): 0.5 mg/L (≈ 1.51 µM)
MIC (Legionella spp.; read-out: MIC Range): 0.12 to 0.5 mg/L (≈ 0.362 to 1.51 µM)
MIC50 (P. aeruginosa (CiproS)): 0.12 mg/L (≈ 0.362 µM)
MIC90 (P. aeruginosa (CiproS)): 0.5 mg/L (≈ 1.51 µM)
MIC (P. aeruginosa (CiproS); read-out: MIC Range): 0.06 to 2 mg/L (≈ 0.181 to 6.04 µM)
MIC50 (P. aeruginosa (CiproR); Pseudomonas aeruginosa): 64 mg/L (≈ 193 µM)
MIC90 (P. aeruginosa (CiproR); Pseudomonas aeruginosa): 128 mg/L (≈ 386 µM)
MIC90 (P. aeruginosa (CiproR); ciprofloxacin resistant P. aeruginosa strains): 128 (g/mL
MIC50 (Klebsiella spp.): 0.06 mg/L (≈ 0.181 µM)
MIC90 (Klebsiella spp.): 0.12 mg/L (≈ 0.362 µM)
MIC (Klebsiella spp.; read-out: MIC Range): 0.004 to 0.5 mg/L (≈ 0.0121 to 1.51 µM)
MIC50 (H. influenzae): 0.015 mg/L (≈ 0.0453 µM)
MIC90 (H. influenzae): 0.015 mg/L (≈ 0.0453 µM)
MIC (H. influenzae; read-out: MIC Range): 0.008 to 0.015 mg/L (≈ 0.0241 to 0.0453 µM)
MIC50 (C. freundii): 0.015 mg/L (≈ 0.0453 µM)
MIC90 (C. freundii): 0.12 mg/L (≈ 0.362 µM)
MIC (C. freundii; read-out: MIC Range): 0.004 to 0.5 mg/L (≈ 0.0121 to 1.51 µM)
ED50 (Escherichia coli JUHL; po): 4.1 mg/kg
ED50 (Escherichia coli JUHL; sc): 1 mg/kg
MIC50 (S. epidermidis (CiproR)): 16 mg/L (≈ 48.3 µM)
MIC90 (S. epidermidis (CiproR)): > 128 mg/L
